For 24 molecules, EC50 results are on record in patent publication US20260234123A1, “Inhibitors of NLRP3” (Mwyngil Therapeutics, Inc., priority 2023, published 2026).

One assay relates to IL1b release THP-1. Briefly: IL1b release THP-1 (ELISA). The class given is cell-based. To be noted: Homo sapiens, THP-1, read-out: THP 1 IL 1b, EC50, μM. The method, then:
Example A. Primary Assays Used to Determine IL1b Release THP-1 (ELISA)
• Microbiological safety cabinet, classII (NuAire, USA) • CO2 incubator (VWR Science, USA) • Countess Automated Cell Counter (Invitrogen, USA, cat. number C10227) • Centrifuge CM 6M (Elmi, Latvia) • Serological pipettes 2, 5, 10, 25, 50, 100 ml sterile (Santa Cruz Biotechnology, Inc., USA, sc-200277, sc-200279, sc-200281, sc-200283, Sc-213234, sc-516777) • Single and multichannel pipettes 0.2-10 μL, 50-1200 μL (Eppendorf AG-Hamburg, Germany) • 50 mL PP sterile tubes (Greiner, cat. Number 210261).
• RPMI-1640 (PanEco, C330) • Sodium pyruvate (Paneco, cat. number Φ023) • Non-Essential amino acids 50× (Paneco, Φ116) • Essential amino acids 50× (Paneco, Φ115/50) • FBS (Hyclone Laboratories Inc, USA, SV30160.03) • Antibiotic-antimycotic (Gibco, USA, 15240-062) • 2-mercaptoethanol 1000×55 mM (Gibco, USA, 21985-023) • LPS-EB ultrapure (invivogen, cat. number tlrl-3pelps) • Nigericin (Sigma, cat. number N7143) • ELISA kit, IL-1beta (Cat #A-8766, Interleukin-1 beta-EIA-BEST, Vector Best). LPS Preparation (5 mg/ml): • 1. Add 1 ml of endotoxin-free water according manufacturer's protocol • 2. Vortex until complete solubilization • 3. Aliquote and store at […] for long term storage.
• 1. Add methanol to 10 mg of powder to produce the 10 mM Nigericin solution • 2. Vortex until complete solubilization • 3. Store at 4° C.
THP-1 cells were propagated in RPMI-1640 (10% FBS, Antibiotic-antimycotic 1×, non-Essential amino acids 1×, Essential amino acids 1×, Sodium pyruvate 2×, 2-mercaptoethanol 0.05 mM) at 37° C. and at 5% CO2 in an incubator.
• 1. THP-1 cells were spined at 100 g for 5 min in 50 ml tube. • 2. THP-1 cells were resuspended in warm culture medium (w/o FBS, w/o Antibiotic-antimycotic, non-Essential amino acids 1×, Essential amino acids 1×, Sodium pyruvate 2×) to the concentration 1,3×10^6 cells. • 3. THP-1 cells were primed in tube with 1 μg/ml of LPS for 4 h at 37° C. and at 5% CO2 in an incubator. • 4. THP-1 cells were stimulated with 10 μM of Nigericin (Cat #N7143-10 MG, Sigma Aldrich) for 2 h at 37° C. and at 5% CO2 in an incubator. • 5. After the full activation, the supernatant was collected and the levels of IL-1β were assessed via ELISA according manufacturer instructions (Cat #A-8766, Vector Best).
The average EC50 values are shown in Table A, wherein “A” corresponds to EC50: A≤0.5 μM, “B” corresponds to 0.5 μM<EC50≤1.0 μM, “C” 1.0 μM<EC50≤5.0 μM, “D” corresponds to 5.0 μM<EC50≤30 μM and “E” corresponds to EC50>30 μM.
For orientation: In an ELISA, binding on a coated surface is turned into a signal by an enzyme label.
For orientation: EC50 means the concentration needed to bring the measured effect to its halfway point. As for `Cc1cc(-c2ccc(C(F)(F)F)cc2NS(C)(=O)=O)nnc1N[C@@H]1CCCN(C2CCC2)C1` [Compound 31, (R)—N-(2-(6-((1-Cyclobutylpiperidin-3-yl)amino)-5-methylpyridazin-3-yl)-5-(trifluoromethyl)phenyl) methanesulfonamide], the EC50 is less than 0.5 µM.

With `Cc1cc(-c2ccc(C(F)(F)F)cc2NS(C)(=O)=O)nnc1N[C@@H]1CCCN(C(C)C)C1` [Compound 25, (R)—N-(2-(6-((1-Isopropylpiperidin-3-yl)amino)-5-methylpyridazin-3-yl)-5-(trifluoromethyl)phenyl) methanesulfonamide], the EC50 was less than 0.5 µM.

The assay is the same for the next values; noted with them: Homo sapiens; average EC50; THP-1 cells primed with 1 μg/ml LPS 4 h, stimulated with 10 μM Nigericin 2 h; IL-1β in supernatant by ELISA; read-out: THP 1 IL 1b, EC50.
Take `Cc1cc(N[C@@H]2CCCN(C(C)C)C2)nnc1-c1ccc(C(F)(F)F)cc1NC(=O)C(F)(F)F` [Compound 117, (R)-2,2,2-Trifluoro-N-(2-(6-((1-isopropylpiperidin-3-yl)amino)-4-methylpyridazin-3-yl)-5-(trifluoromethyl)phenyl) acetamide]: the EC50 is less than 0.5 µM.

`CN1CCC[C@@H](Nc2nnc(-c3ccc(C(F)(F)F)cc3NS(C)(=O)=O)c3c2C2CCC3CC2)C1` [Compound 54, N-[2-[6-[[(3R)-1-methyl-3-piperidyl]amino]-4,5-diazatricyclo[6.2.2.02,7]dodeca-2(7),3,5-trien-3-yl]-5-(trifluoromethyl)phenyl]methanesulfon-amide]: the EC50 was 5 to 30 µM.

Turning to `Cc1cc(N[C@@H]2CCCN(C(C)C)C2)nnc1-c1ccc(C(F)(F)F)cc1NC(=O)C(C)(C)C` [Compound 138, N-[2-[6-[[(3R)-1-isopropyl-3-piperidyl]amino]-4-methyl-pyridazin-3-yl]-5-(trifluoromethyl)phenyl]-2,2-dimethyl-propanamide], the EC50 is 1 to 5 µM.

On to `Cc1cc(-c2ccc(C(F)(F)F)c(N)c2N)nnc1N[C@@H]1CCCN(C)C1` [Compound 103, 3-[5-methyl-6-[[(3R)-1-methyl-3-piperidyl]amino]pyridazin-3-yl]-6-(trifluoromethyl)benzene-1,2-diamine], for which the EC50 lay in the range of 5 to 30 µM.

`CCN1CCC[C@@H](Nc2cc(C)c(-c3ccc(C(F)(F)F)cc3NS(=O)(=O)C(C)C)nn2)C1` [Compound 70, N-[2-[6-[[(3R)-1-ethyl-3-piperidyl]amino]-4-methyl-pyridazin-3-yl]-5-(trifluoromethyl)phenyl]propane-2-sulfonamide]: the EC50 lay in the range of 1 to 5 µM.

As for `CCN1CCC[C@@H](Nc2cc(C)c(-c3ccc(C(F)(F)F)cc3NS(=O)(=O)c3c[nH]cn3)nn2)C1` [Compound 69, N-[2-[6-[[(3R)-1-ethyl-3-piperidyl]amino]-4-methyl-pyridazin-3-yl]-5-(trifluoromethyl)phenyl]-1H-imidazole-4-sulfonamide], the EC50 lay in the range of 1 to 5 µM.

As to `Cc1cc(N[C@@H]2CCCNC2)nnc1-c1ccc(C(F)(F)F)cc1NS(C)(=O)=O` [Compound 71, N-[2-[4-methyl-6-[[(3R)-3-piperidyl]amino]pyridazin-3-yl]-5-(trifluoromethyl)phenyl]methanesulfon-amide], the EC50 was in the range of 1 to 5 µM.

Consider `CCN1CCC[C@@H](Nc2nnc(-c3ccc(C(F)(F)F)cc3NS(=O)(=O)C3CC3)cc2C)C1` [Compound 64], for which the EC50 is less than 0.5 µM.

Consider `CC(=O)Nc1cc(C(F)(F)F)ccc1-c1cc(C)c(N[C@@H]2CCCN(C(C)C)C2)nn1` [Compound 137, N-[2-[6-[[(3R)-1-isopropyl-3-piperidyl]amino]-5-methyl-pyridazin-3-yl]-5-(trifluoromethyl)phenyl]acetamide], for which the EC50 lay within 1 to 5 µM.

On to `Cc1cc(N[C@@H]2CCCN(Cc3ccccc3)C2)nnc1-c1ccc(C(F)(F)F)cc1NS(C)(=O)=O` [Compound 44, N-[2-[6-[[(3R)-1-benzyl-3-piperidyl]amino]-4-methyl-pyridazin-3-yl]-5-(trifluoromethyl)phenyl]methanesulfon-amide], for which the EC50 fell in the range of 0.5 to 1 µM.

For `CCN1CCC[C@@H](Nc2cc(C)c(-c3ccc(C(F)(F)F)cc3N)nn2)C1` [Compound 130, (R)-6-(2-Amino-4-(trifluoromethyl)phenyl)-N-(1-ethylpiperidin-3-yl)-5-methylpyridazin-3-amine], the EC50 was less than 0.5 µM.

Regarding `Cc1cc(N[C@@H]2CCCN(C(C)C)C2)nnc1-c1ccc(C(F)(F)F)cc1NC(F)(F)F` [Compound 122, N-[(3R)-1-isopropyl-3-piperidyl]-5-methyl-6-[4-(trifluoromethyl)-2-(trifluoromethylamino)phenyl]-pyridazin-3-amine], the EC50 lay in the range of 0.5 to 1 µM.

For the molecule `Cc1cc(N[C@@H]2CCCN(C(C)C)C2)nnc1-c1ccc(C(F)(F)F)cc1NC(=O)C(F)F` [Compound 113], the EC50 is less than 0.5 µM.

As to `CCN1CCC[C@@H](Nc2cc(C)c(-c3ccc(C(F)(F)F)cc3NS(C)(=O)=O)nn2)C1` [Compound 5, (R)—N-(2-(6-((1-Ethylpiperidin-3-yl)amino)-4-methylpyridazin-3-yl)-5-(trifluoromethyl)phenyl) methanesulfonamide], the EC50 is less than 0.5 µM.

Take `Cc1cc(-c2ccc(C(F)(F)F)cc2NS(C)(=O)=O)nnc1N[C@@H]1CCCN(C2CCOCC2)C1` [Compound 38, (R)—N-(2-(5-Methyl-6-((1-(tetrahydro-2H-pyran-4-yl)piperidin-3-yl)amino)pyridazin-3-yl)-5-(trifluoromethyl)phenyl) methanesulfonamide]: the EC50 was less than 0.5 µM.

For `CN1CCC[C@@H](Nc2cc(C(F)(F)F)c(-c3ccc(C(F)(F)F)c4nn[nH]c34)nn2)C1` [Compound 23], the EC50 is more than 30 µM.

Take `Cc1cc(-c2ccc(C(F)(F)F)c3cn[nH]c23)nnc1N[C@@H]1CCCN(C)C1` [Compound 17, (R)-4-Methyl-N-(1-methylpiperidin-3-yl)-6-(4-(trifluoromethyl)-1H-indazol-7-yl)pyridazin-3-amine]: the EC50 lay within 5 to 30 µM.

As for `Cc1cc(-c2ccc(C(F)(F)F)cc2NC(=O)C(F)(F)C(F)(F)F)nnc1N[C@@H]1CCCN(C(C)C)C1` [Compound 125, 2,2,3,3,3-pentafluoro-N-[2-[6-[[(3R)-1-isopropyl-3-piperidyl]amino]-5-methyl-pyridazin-3-yl]-5-(trifluoromethyl)phenyl]propanamide], the EC50 lay within 1 to 5 µM.

`Cc1cc(N[C@@H]2CCCN(C(C)C)C2)nnc1-c1ccc(C(F)(F)F)cc1NC(=O)C(F)(F)C(F)(F)F` [Compound 123, (R)-2,2,3,3,3-Pentafluoro-N-(2-(6-((1-isopropylpiperidin-3-yl)amino)-4-methylpyridazin-3-yl)-5-(trifluoromethyl)phenyl) propanamide]: the EC50 was 1 to 5 µM.

Consider `CN1CCC[C@@H](Nc2nnc(-c3ccc(C(F)(F)F)c4nn[nH]c34)cc2C(F)(F)F)C1` [Compound 24], for which the EC50 is more than 30 µM.

`Cc1cc(-c2ccc(C(F)(F)F)cc2Nc2ccccc2)nnc1N[C@@H]1CCCN(C(C)C)C1` [Compound 121, 6-[2-anilino-4-(trifluoromethyl)phenyl]-N-[(3R)-1-isopropyl-3-piperidyl]-4-methyl-pyridazin-3-amine]: the EC50 was in the range of 0.5 to 1 µM.

`CNc1cc(C(F)(F)F)ccc1-c1nnc(N[C@@H]2CCCN(C(C)C)C2)cc1C` [Compound 108, N-[(3R)-1-isopropyl-3-piperidyl]-5-methyl-6-[2-(methylamino)-4-(trifluoromethyl)phenyl]pyridazin-3-amine]: the EC50 is less than 0.5 µM.
